The subject of experiment [1] is Beet Armyworm (Spodoptera exigua, LAPHEG). Put plainly: Bioassay on Beet Armyworm (BAW), 128-well diet tray assay. The experiment is classed as in vivo. Particulars: 168 h, 50 μg/cm^2 on artificial diet, second instar larvae, five to seven days, 25° C., read-out: BAW % Control (or Mortality) rating. The method in brief:
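Artificial diet was surface-treated with 50 μg/cm^2 of compound in 90:10 acetone-water and dried; one to five second-instar larvae were placed per well, eight wells per treatment. Held at 25 °C, 14:10 light-dark, for five to seven days, then percent mortality per well was averaged.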

The test system of experiment [2] is Cabbage Looper (Trichoplusia ni, TRIPNI). The experiment is described as follows: Bioassay on Cabbage Looper (CL), 128-well diet tray assay. The experiment is classed as in vivo. Particulars: 168 h, 50 μg/cm^2 on artificial diet, second instar larvae, five to seven days, 25° C., read-out: CL % Control (or Mortality) rating. The method in brief: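 Diet-tray assay: 1–5 second-instar larvae per well on artificial diet surface-treated with 50 μg/cm^2 compound (90:10 acetone-water, dried), eight wells per compound. Held at 25° C., 14:10 light-dark for five to seven days; percent mortality per well averaged across the eight wells.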

SMILES strings stand for the structures.

One may read the mortality as the share of the test organisms that died.

As for `CC(CNC(=O)c1ccc(/C(F)=C/C(c2cc(Cl)c(Cl)c(Cl)c2)C(F)(F)F)cc1C(F)(F)F)[S+](C)[O-]` (centres unmarked) [F90, (Z)—N-(2-(Methylsulfinyl)propyl)-4-(1,4,4,4-tetrafluoro-3-(3,4,5-trichlorophenyl)but-1-en-1-yl)-2-(trifluoromethyl)benzamide], the mortality at 50 µg/cm2 in experiment [1] and in experiment [2] was 50 to 100% throughout.

For `C[C@H](CS(=O)(=O)CC(F)(F)F)NC(=O)c1ccc(/C(F)=C/C(c2cc(F)c(F)c(Br)c2)C(F)(F)F)cc1C(F)(F)F` (stereo partly drawn) [F94, 4-((Z)-3-(3-Bromo-4,5-difluorophenyl)-1,4,4,4-tetrafluorobut-1-en-1-yl)-N—((R)-1-((2,2,2-trifluoroethyl)sulfonyl)propan-2-yl)-2-(trifluoromethyl)benzamide], the mortality at 50 µg/cm2 in experiment [1] and in experiment [2] was 50 to 100% each time.

For `C[C@H](C[S+]([O-])CC(C)(F)F)NC(=O)c1ccc(/C(F)=C/C(c2cc(Cl)c(Cl)c(Cl)c2)C(F)(F)F)cc1C(F)(F)F` (stereo partly drawn) [F96, N-((2R)-1-((2,2-Difluoropropyl)sulfinyl)propan-2-yl)-4-((Z)-1,4,4,4-tetrafluoro-3-(3,4,5-trichlorophenyl)but-1-en-1-yl)-2-(trifluoromethyl)benzamide], the mortality at 50 µg/cm2 in experiment [1] and in experiment [2] was 50 to 100% in each case.

Take `C[C@H](CS(=O)(=O)CC(C)(F)F)NC(=O)c1ccc(/C(F)=C/C(c2cc(Cl)c(Cl)c(Cl)c2)C(F)(F)F)cc1C(F)(F)F` (stereo partly drawn) [F97, N—((R)-1-((2,2-difluoropropyl)sulfonyl)propan-2-yl)-4-((Z)-1,4,4,4-tetrafluoro-3-(3,4,5-trichlorophenyl)but-1-en-1-yl)-2-(trifluoromethyl)benzamide]: the mortality at 50 µg/cm2 in experiment [1] and in experiment [2] was 50 to 100% each time.

Turning to `CC(C)(CS(C)(=O)=O)NC(=O)c1ccc(/C(F)=C/C(c2cc(Cl)c(Cl)c(Cl)c2)C(F)(F)F)cc1C(F)(F)F` (centres unmarked) [F100, (Z)—N-(2-Methyl-1-(methylsulfonyl)propan-2-yl)-4-(1,4,4,4-tetrafluoro-3-(3,4,5-trichlorophenyl)but-1-en-1-yl)-2-(trifluoromethyl)benzamide], the mortality at 50 µg/cm2 in experiment [1] and in experiment [2] was 50 to 100% in each case.

Turning to `CSC(C)C(C)NC(=O)c1ccc(/C(F)=C/C(c2cc(Cl)c(Cl)c(Cl)c2)C(F)(F)F)cc1C(F)(F)F` (centres unmarked) [F101, (Z)—N-(3-(methylthio)butan-2-yl)-4-(1,4,4,4-tetrafluoro-3-(3,4,5-trichlorophenyl)but-1-en-1-yl)-2-(trifluoromethyl)benzamide], the mortality at 50 µg/cm2 in experiment [1] and in experiment [2] was 50 to 100% each time.

As for `C[C@H](CS(=O)(=O)CC(F)(F)F)NC(=O)c1ccc(/C(F)=C/C(c2ccc(OC(F)(F)F)c(Cl)c2)C(F)(F)F)cc1C(F)(F)F` (stereo partly drawn) [F109, 4-((Z)-3-(3-Chloro-4-(trifluoromethoxy)phenyl)-1,4,4,4-tetrafluorobut-1-en-1-yl)-N—((R)-1-((2,2,2-trifluoroethyl)sulfonyl)propan-2-yl)-2-(trifluoromethyl)benzamide], the mortality at 50 µg/cm2 in experiment [1] and in experiment [2] was 50 to 100% in each case.

In the case of `C[C@H](CS(=O)(=O)CC(F)(F)F)NC(=O)c1ccc(/C(F)=C/C(c2cc(Cl)cc(OC(F)(F)F)c2)C(F)(F)F)cc1C(F)(F)F` (stereo partly drawn) [F110, 4-((Z)-3-(3-Chloro-5-(trifluoromethoxy)phenyl)-1,4,4,4-tetrafluorobut-1-en-1-yl)-N—((R)-1-((2,2,2-trifluoroethyl)sulfonyl)propan-2-yl)-2-(trifluoromethyl)benzamide], the mortality at 50 µg/cm2 in experiment [1] and in experiment [2] was 50 to 100% throughout.

For the compound `C=Cc1cc(Cl)cc(C(/C=C(\F)c2ccc(C(=O)N[C@H](C)CS(=O)(=O)CC(F)(F)F)c(C(F)(F)F)c2)C(F)(F)F)c1` (stereo partly drawn) [F112, 4-((Z)-3-(3-Chloro-5-vinylphenyl)-1,4,4,4-tetrafluorobut-1-en-1-yl)-N—((R)-1-((2,2,2-trifluoroethyl)sulfonyl)propan-2-yl)-2-(trifluoromethyl)benzamide], the mortality at 50 µg/cm2 in experiment [1] and in experiment [2] was 50 to 100% each time.

Turning to `C[C@H](CSCC(C)(F)F)NC(=O)c1ccc(/C(F)=C/C(c2cc(Cl)c(Cl)c(Cl)c2)C(F)(F)F)cc1C(F)(F)F` (stereo partly drawn) [F113, N—((R)-1-((2,2-Difluoropropyl)thio)propan-2-yl)-4-((Z)-1,4,4,4-tetrafluoro-3-(3,4,5-trichlorophenyl)but-1-en-1-yl)-2-(trifluoromethyl)benzamide], the mortality at 50 µg/cm2 in experiment [1] and in experiment [2] was 50 to 100% throughout.

Regarding `C=C(C)c1cc(C(/C=C(\F)c2ccc(C(=O)N[C@H](C)CS(=O)(=O)CC(F)(F)F)c(C(F)(F)F)c2)C(F)(F)F)cc(Cl)c1Cl` (stereo partly drawn) [F114, 4-((Z)-3-(3,4-Dichloro-5-(prop-1-en-2-yl)phenyl)-1,4,4,4-tetrafluorobut-1-en-1-yl)-N—((R)-1-((2,2,2-trifluoroethyl)sulfonyl)propan-2-yl)-2-(trifluoromethyl)benzamide], the mortality at 50 µg/cm2 in experiment [1] and in experiment [2] was 50 to 100% in each case.

For `C=Cc1cc(/C(F)=C/C(c2cc(Cl)c(Cl)c(Cl)c2)C(F)(F)F)ccc1C(=O)N[C@H](C)CS(=O)(=O)CC(F)(F)F` (some centres unmarked) [F116], the mortality at 50 µg/cm2 in experiment [1] and in experiment [2] was 50 to 100% each time.

In the case of `C[C@H](CSCC(F)(F)F)NC(=O)c1ccc(/C(F)=C/C(c2cc(F)c(Cl)c(C(F)(F)F)c2)C(F)(F)F)cc1C(F)(F)F` (stereo partly drawn) [F117, 4-((Z)-3-(4-Chloro-3-fluoro-5-(trifluoromethyl)phenyl)-1,4,4,4-tetrafluorobut-1-en-1-yl)-N—((R)-1-((2,2,2-trifluoroethyl)thio)propan-2-yl)-2-(trifluoromethyl)benzamide], the mortality at 50 µg/cm2 in experiment [1] and in experiment [2] was 50 to 100% each time.

Turning to `C[C@H](CS(=O)(=O)CC(F)(F)F)NC(=O)c1ccc(/C(F)=C/C(c2cc(Cl)cc(C(C)(F)F)c2)C(F)(F)F)cc1C(F)(F)F` (stereo partly drawn) [F120, 4-((Z)-3-(3-Chloro-5-(1,1-difluoroethyl)phenyl)-1,4,4,4-tetrafluorobut-1-en-1-yl)-N—((R)-1-((2,2,2-trifluoroethyl)sulfonyl)propan-2-yl)-2-(trifluoromethyl)benzamide], the mortality at 50 µg/cm2 in experiment [1] and in experiment [2] was 50 to 100% throughout.

Turning to `CC(CNC(=O)c1ccc(/C(F)=C/C(c2cc(Cl)c(Cl)c(Cl)c2)C(F)(F)F)cc1C(F)(F)F)S(C)(=O)=O` (centres unmarked) [F124, (Z)—N-(2-(methylsulfonyl)propyl)-4-(1,4,4,4-tetrafluoro-3-(3,4,5-trichlorophenyl)but-1-en-1-yl)-2-(trifluoromethyl)benzamide], the mortality at 50 µg/cm2 in experiment [1] and in experiment [2] was 50 to 100% each time.

For `C[C@H](CS(=O)(=O)CC(F)(F)F)NC(=O)c1ccc(/C(F)=C/C(c2cc(F)cc(Cl)c2)C(F)(F)F)cc1C(F)(F)F` (stereo partly drawn) [F126, 4-((Z)-3-(3-Chloro-5-fluorophenyl)-1,4,4,4-tetrafluorobut-1-en-1-yl)-N—((R)-1-((2,2,2-trifluoroethyl)sulfonyl)propan-2-yl)-2-(trifluoromethyl)benzamide], the mortality at 50 µg/cm2 in experiment [1] and in experiment [2] was 50 to 100% in each case.

These data come from patent publication US10681908B2, “Molecules having pesticidal utility, and intermediates, compositions, and processes, related thereto” (Dow AgroSciences LLC, priority 2016, dated 2020).
